Test results published in patent US20050176655A1, “Novel macrolide derivatives havaing effect of potentiating antifungal activity” (priority 2002, published 2005).

What was measured:
Assay in all cases: Paper disk method, enhancing action for activities of azole antifungal agents
Type in all cases: cell-based
[1] = system: Aspergillus niger ATCC 6275; conditions: 48 hours; for Inhibition activity (inhibition ring mm) A. niger ATCC 6275 GY / Transparency of the inhibition ring A. niger ATCC 6275 GY: GY medium (control, no azole); for Inhibition activity (inhibition ring mm) A. niger ATCC 6275 GYF / Transparency of the inhibition ring A. niger ATCC 6275 GYF: fluconazole 10 μg/ml; for Inhibition activity (inhibition ring mm) A. niger ATCC 6275 GYM / Transparency of the inhibition ring A. niger ATCC 6275 GYM: miconazole 0.1 μg/ml
In short: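 Paper-disk assay on A. niger ATCC 6275 spores (0.2%) seeded on GY agar pH 6.0. After 48 h, inhibition-zone diameter recorded in mm and transparency graded A (transparent) to E (opaque).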

[2] = system: Candida albicans ATCC 64548; conditions: 24 hours; for Inhibition activity (inhibition ring mm) C. albicans ATCC 64548 GYM / Transparency of the inhibition ring C. albicans ATCC 64548 GYM: miconazole 0.03 μg/ml; for Inhibition activity (inhibition ring mm) C. albicans ATCC 64548 GYF / Transparency of the inhibition ring C. albicans ATCC 64548 GYF: fluconazole 0.5 μg/ml
In short: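 GY agar (pH 6.0) seeded with C. albicans ATCC 64548 precultured in Waksman broth at 27° C for 40 hours, supplemented with sub-growth-inhibitory miconazole 0.03 μg/ml or fluconazole 0.5 μg/ml. Paper disk method; inhibition-zone diameter (mm) read after 24 hours, transparency graded A–E.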

[3] = system: fluconazole resistant Candida albicans ATCC 64550; conditions: 24 hours; for Inhibition activity (inhibition ring mm) C. albicans ATCC 64550 GYF / Transparency of the inhibition ring C. albicans ATCC 64550 GYF: fluconazole 30 μg/ml; for Inhibition activity (inhibition ring mm) C. albicans ATCC 64550 GYM / Transparency of the inhibition ring C. albicans ATCC 64550 GYM: miconazole 0.15 μg/ml
Experimental: Test organisms used were Candida albicans ATCC 64548, fluconazole resistant Candida albicans ATCC 64550 and Aspergillus niger ATCC 6275. Candida spp. were cultured in Waksman broth (glucose 2.0%, peptone 0.5%, dry yeast 0.3%, meat extract 0.5%, NaCl 0.5% and CaCO3 0.3%, pH 7.0) at 27° C. for 40 hours, then 0.1% thereof was inoculated on GY agar medium (glucose 1.0%, yeast extract 0.5% and agar 0.8%, pH 6.0). Spore suspension 0.2% of Aspergillus niger ATCC 6275 was inoculated on GY agar medium.
Azole antifungal agents used were miconazole (Sigma Inc., the U.S.) and fluconazole (ICN Pharmaceuticals, Inc., the U.S.), and were added at concentrations without affecting growth on each test organisms follows.
Candida albicans ATCC 64550: miconazole 0.15 μg/ml or fluconazole 30 μg/ml.
In the above medium, a medium added with miconazole to GY medium (control) is designated as GYM, and a medium added with fluconazole is designated as GYF. Activities were assessed by means of paper disk method (thickness: 8 mm, ADVANTEC MFS INC., Japan). Diameter of inhibition ring is expressed with mm unit after culturing Candida spp. for 24 hours and Aspergillus niger ATCC 6275 for 48 hours. Transparency of the inhibition ring is assessed with 5 degrees of A, B, C, D and E (transparence<A<B<C<D<E<opaque).

Row | Compound | Inhibition activity (inhibition ring mm) A. niger ATCC 6275 GY ([1]; 50 μg/8 mm disk) | Transparency of the inhibition ring A. niger ATCC 6275 GY ([1]; 50 μg/8 mm disk) | Inhibition activity (inhibition ring mm) A. niger ATCC 6275 GYF ([1]; 50 μg/8 mm disk) | Transparency of the inhibition ring A. niger ATCC 6275 GYF ([1]; 50 μg/8 mm disk) | Inhibition activity (inhibition ring mm) A. niger ATCC 6275 GYM ([1]; 50 μg/8 mm disk) | Transparency of the inhibition ring A. niger ATCC 6275 GYM ([1]; 50 μg/8 mm disk) | Inhibition activity (inhibition ring mm) A. niger ATCC 6275 GY ([1]; 100 μg/8 mm disk) | Transparency of the inhibition ring A. niger ATCC 6275 GY ([1]; 100 μg/8 mm disk) | Inhibition activity (inhibition ring mm) A. niger ATCC 6275 GYF ([1]; 100 μg/8 mm disk) | Transparency of the inhibition ring A. niger ATCC 6275 GYF ([1]; 100 μg/8 mm disk) | Inhibition activity (inhibition ring mm) A. niger ATCC 6275 GYM ([1]; 100 μg/8 mm disk) | Transparency of the inhibition ring A. niger ATCC 6275 GYM ([1]; 100 μg/8 mm disk) | Inhibition activity (inhibition ring mm) C. albicans ATCC 64548 GYM ([2]; 50 μg/8 mm disk) | Transparency of the inhibition ring C. albicans ATCC 64548 GYM ([2]; 50 μg/8 mm disk) | Inhibition activity (inhibition ring mm) C. albicans ATCC 64548 GYM ([2]; 100 μg/8 mm disk) | Transparency of the inhibition ring C. albicans ATCC 64548 GYM ([2]; 100 μg/8 mm disk) | Inhibition activity (inhibition ring mm) C. albicans ATCC 64550 GYF ([3]; 10 μg/8 mm disk) | Transparency of the inhibition ring C. albicans ATCC 64550 GYF ([3]; 10 μg/8 mm disk) | Inhibition activity (inhibition ring mm) C. albicans ATCC 64550 GYF ([3]; 50 μg/8 mm disk) | Transparency of the inhibition ring C. albicans ATCC 64550 GYF ([3]; 50 μg/8 mm disk) | further results
1 | CCCCCC(=O)OC1C(C)OC(OC2C(C)C(=O)OC(C(C)(O)C(CC)OC(=O)CCCCC)C(C)C3=C(C)CC(C)(O3)C(OC3OC(C)CC(NC)C3O)C2C)CC1(C)OC (centres unmarked) [Compound 852] | 9 mm | E (Growth of test organism was inhibited 35% or less.) | 8 mm | D (Growth of test organism was inhibited 35% or more and 55% or less.) | 8 mm | C (Growth of test organism was inhibited 55% or more and 75% or less.) | 10 mm | E (Growth of test organism was inhibited 35% or less.) | 9 mm | D (Growth of test organism was inhibited 35% or more and 55% or less.) | 9 mm | A (Growth of test organism was inhibited 95% or more.) | 9 mm | A (Growth of test organism was inhibited 95% or more.) | 10 mm | A (Growth of test organism was inhibited 95% or more.) | 9 mm | C (Growth of test organism was inhibited 55% or more and 75% or less.) | 11 mm | A (Growth of test organism was inhibited 95% or more.) | Inhibition activity (inhibition ring mm) C. albicans ATCC 64550 GYM ([3]; 10 μg/8 mm disk): 9 mm; Transparency of the inhibition ring C. albicans ATCC 64550 GYM ([3]; 10 μg/8 mm disk): C (Growth of test organism was inhibited 55% or more and 75% or less.); Inhibition activity (inhibition ring mm) C. albicans ATCC 64550 GYM ([3]; 50 μg/8 mm disk): 10 mm; Transparency of the inhibition ring C. albicans ATCC 64550 GYM ([3]; 50 μg/8 mm disk): B (Growth of test organism was inhibited 75% of more and 95% or less.); Inhibition activity (inhibition ring mm) C. albicans ATCC 64550 GYF ([3]; 100 μg/8 mm disk): 12 mm; Transparency of the inhibition ring C. albicans ATCC 64550 GYF ([3]; 100 μg/8 mm disk): A (Growth of test organism was inhibited 95% or more.); Inhibition activity (inhibition ring mm) C. albicans ATCC 64550 GYM ([3]; 100 μg/8 mm disk): 12 mm; Transparency of the inhibition ring C. albicans ATCC 64550 GYM ([3]; 100 μg/8 mm disk): B (Growth of test organism was inhibited 75% of more and 95% or less.)
2 | CCCCCC(=O)OC1C(C)OC(OC2C(C)C(=O)OC(C(C)(O)C(CC)OC(=O)CCCCC)C(C)C3=C(C)CC(C)(O3)C(OC3OC(C)CC(N(C)CC)C3O)C2C)CC1(C)OC (centres unmarked) [Compound 853, 4″,13-Di-O-hexanoyl-de(3′-N-methyl)-N-ethyl-8,9-Anhydro-pseudoerythromycin A 6,9-hemiketal] | 12 mm | D (Growth of test organism was inhibited 35% or more and 55% or less.) | 13 mm | B (Growth of test organism was inhibited 75% of more and 95% or less.) | 15 mm | B (Growth of test organism was inhibited 75% of more and 95% or less.) | 13 mm | D (Growth of test organism was inhibited 35% or more and 55% or less.) | 14 mm | B (Growth of test organism was inhibited 75% of more and 95% or less.) | 16 mm | B (Growth of test organism was inhibited 75% of more and 95% or less.) | 14 mm | A (Growth of test organism was inhibited 95% or more.) | 15 mm | A (Growth of test organism was inhibited 95% or more.) | 11 mm | D (Growth of test organism was inhibited 35% or more and 55% or less.) | 14 mm | A (Growth of test organism was inhibited 95% or more.) | Inhibition activity (inhibition ring mm) A. niger ATCC 6275 GY ([1]; 10 μg/8 mm disk): 10 mm; Transparency of the inhibition ring A. niger ATCC 6275 GY ([1]; 10 μg/8 mm disk): E (Growth of test organism was inhibited 35% or less.); Inhibition activity (inhibition ring mm) A. niger ATCC 6275 GYF ([1]; 10 μg/8 mm disk): 9 mm; Transparency of the inhibition ring A. niger ATCC 6275 GYF ([1]; 10 μg/8 mm disk): E (Growth of test organism was inhibited 35% or less.); Inhibition activity (inhibition ring mm) A. niger ATCC 6275 GYM ([1]; 10 μg/8 mm disk): 10 mm; Transparency of the inhibition ring A. niger ATCC 6275 GYM ([1]; 10 μg/8 mm disk): E (Growth of test organism was inhibited 35% or less.); Inhibition activity (inhibition ring mm) C. albicans ATCC 64548 GYF ([2]; 10 μg/8 mm disk): 9 mm; Transparency of the inhibition ring C. albicans ATCC 64548 GYF ([2]; 10 μg/8 mm disk): E (Growth of test organism was inhibited 35% or less.); Inhibition activity (inhibition ring mm) C. albicans ATCC 64548 GYM ([2]; 10 μg/8 mm disk): 10 mm; Transparency of the inhibition ring C. albicans ATCC 64548 GYM ([2]; 10 μg/8 mm disk): B (Growth of test organism was inhibited 75% of more and 95% or less.); Inhibition activity (inhibition ring mm) C. albicans ATCC 64548 GYF ([2]; 50 μg/8 mm disk): 14 mm; Transparency of the inhibition ring C. albicans ATCC 64548 GYF ([2]; 50 μg/8 mm disk): B (Growth of test organism was inhibited 75% of more and 95% or less.); Inhibition activity (inhibition ring mm) C. albicans ATCC 64548 GYF ([2]; 100 μg/8 mm disk): 16 mm; Transparency of the inhibition ring C. albicans ATCC 64548 GYF ([2]; 100 μg/8 mm disk): B (Growth of test organism was inhibited 75% of more and 95% or less.); Inhibition activity (inhibition ring mm) C. albicans ATCC 64550 GYM ([3]; 50 μg/8 mm disk): 15 mm; Transparency of the inhibition ring C. albicans ATCC 64550 GYM ([3]; 50 μg/8 mm disk): A (Growth of test organism was inhibited 95% or more.); Inhibition activity (inhibition ring mm) C. albicans ATCC 64550 GYF ([3]; 100 μg/8 mm disk): 15 mm; Transparency of the inhibition ring C. albicans ATCC 64550 GYF ([3]; 100 μg/8 mm disk): A (Growth of test organism was inhibited 95% or more.); Inhibition activity (inhibition ring mm) C. albicans ATCC 64550 GYM ([3]; 100 μg/8 mm disk): 16 mm; Transparency of the inhibition ring C. albicans ATCC 64550 GYM ([3]; 100 μg/8 mm disk): A (Growth of test organism was inhibited 95% or more.)
